From patent US10259844B2, “Endometriosis cell targeting peptide and uses thereof” (Sanford-Burnham Medical Research Institute, priority 2005, dated 2019)
Where no end group is shown, it is not given here. The star is where a group is joined. FITC = O=C1OC2(c3ccc(O)cc3Oc3cc(O)ccc32)c2ccc(NC(=S)*)cc21

What was measured:
[1] = tested on: Ishikawa cells; test: Fluorescence microscopy of overlay on Ishikawa cells; format: cell-based, human
Method: Twenty μl of C16-z13 peptide (10 mM in chloroform:methanol 2:1) was mixed with 20 μl phosphatidylcholine (100 mM in chloroform) and 10 μl cholesterol (100 mM in chloroform) in a round bottom flask and evaporated in a rotary evaporator. The sample was dried in a vacuum, dissolved in 500 μl 0.3M citric acid, and frozen and thawed three times, followed by sonication for 10 min. Five hundred μl of 0.2M Na2CO3 and 20 μl of 1 μM Qdot605 streptavidin was added and heated at 60° C. for 1 hour. After adding 1 ml of 20 mM Hepes buffer, pH7.2, the liposome solution was centrifuged at 90,000 rpm for 30 min at 4° C. and the pellet dissolved in PBS.
(§1) Ishikawa cells and A431 cells were grown on glass coverslips in 3.5 cm tissue culture plates. Each phage clone including z13 was added to these cells, incubated at 4° C. for 15 min, washed with cold PBS, and fixed with 1% paraformaldehyde (PFA) in PBS. Phage was detected using rabbit anti-T7 antibody and FITC-conjugated goat anti-rabbit IgG antibody. After washing three times with PBS, cells were fixed with 1% paraformaldehyde in PBS and inspected under a Zeiss Axioplan fluorescence microscope. Ishikawa cells grown on glass coverslips were incubated in medium containing FITC-z13 peptide (1 μg/ml) at 37° C. for 15 min. After washing with PBS, cells were fixed with 1% PFA in PBS, and inspected under the fluorescence microscope. Qdot-encapsulated and C16-z13 peptide coated liposomes were prepared as described above. Ishikawa cells were incubated with these liposomes at 37° C. for 15 min, washed with PBS, fixed with 1% PFA, and inspected under the fluorescence microscope. Qdot605-conjugated peptide, Qdot-cys-z13, or control peptide, Qdot-cys-m2, was added to the culture at 100 nM and left at 37° C. for 15 min.

[2] = tested on: human endometrial tissues grafted onto the peritoneal wall; test: In vivo targeting in SCID mouse peritoneal endometriosis model; settings: intraperitoneal injection, 30 min
Method: For in vivo targeting, Qdot-cys-z13 or Qdot-cys-m2 (200 nmoles in 200 μl PBS/mouse) was injected into the peritoneum of a SCID mouse that had received intraperitoneal grafts of human endometrial tissues. The abdomen of the mouse was massaged gently to distribute injected material to the entire peritoneal cavity. After 30 min, mice were sacrificed, and the endometrial graft and organs facing the peritoneum were isolated. Tissues were washed in PBS, embedded in O. C. T. compound (Sakura Finetechnical, Tokyo, Japan) and cryosections were made. Sections were fixed with cold methanol, covered with Vecta-shield with DAPI (Vector), and inspected with a fluorescence microscope.
Immunohistochemistry for the progesterone receptor (PR) was performed as follows: Frozen mouse tissue sections prepared from Qdot-cys-z13 injected mice, Qdot-cys-m2 injected mice, and control mice without Qdot injection were fixed in cold methanol for 15 min. Tissue sections were blocked with avidin (5 ng/ml) in PBS at room temperature for 15 min, followed by incubation with 10% goat serum containing biotin (5 μg/ml) for 1 hour. The tissue sections were then applied to immunohistochemistry with a diluted (1:100) anti-PR antibody (DAKO, Carpinteria, Calif.) at 4° C. for 20 hours. After washing with PBS, sections were incubated with biotinylated anti-rabbit IgG antibody (Zymed) and by streptavidin conjugated Qdot565. […]

[3] = tested on: A431 cells; test: Fluorescence microscopy of overlay on A431 cells; format: cell-based, human
Method: as §1

In the case of “Qdot-cys-m2: Qdot605 conjugate of the control peptide cys-m2 CRGMSDTTAL (also: Qdot605 conjugate)”, the “fluorescence of Qdot-conjugated peptide on Ishikawa cells” value ([1]; 100 nM, 37° C. 15 min) is reported as “did not show fluorescence signals”, the “fluorescence at the surface epithelia of endometriosis lesions” value [2] is reported as “did not show fluorescence” and the “fluorescence in other mouse tissues facing the peritoneum” value [2] is reported as “did not show fluorescence”.

In the case of VRRADNRPG [z13 peptide], the “binding to Ishikawa cells regardless of modification at the amino terminus” value ([1]; conclusion from FITC, C16 liposome and Qdot conjugates) is reported as “efficiently binds”.

For “FITC-z13: synthetic fluorescence-tagged z13 peptide whose amino-terminus was conjugated ({FITC}-VRRADNRPG)”, the “binding of fluorescent peptide to Ishikawa cells” value ([1]; 1 μg/ml, 37° C. 15 min) was “bound” and the “fluorescence of fluorescent peptide on A431 cells” value [3] was “did not show fluorescence”.
